Results on two molecules are retold here after US20200390764A1, “PHARMACEUTICAL FORMULATIONS, PROCESSES FOR PREPARATION, AND METHODS OF USE” (Sunesis Pharmaceuticals, Inc., priority 2017, published 2020).

The target in one series is T1, PDK1 (Homo sapiens, UniProt O15530).
T1 sequence (O15530 1-556): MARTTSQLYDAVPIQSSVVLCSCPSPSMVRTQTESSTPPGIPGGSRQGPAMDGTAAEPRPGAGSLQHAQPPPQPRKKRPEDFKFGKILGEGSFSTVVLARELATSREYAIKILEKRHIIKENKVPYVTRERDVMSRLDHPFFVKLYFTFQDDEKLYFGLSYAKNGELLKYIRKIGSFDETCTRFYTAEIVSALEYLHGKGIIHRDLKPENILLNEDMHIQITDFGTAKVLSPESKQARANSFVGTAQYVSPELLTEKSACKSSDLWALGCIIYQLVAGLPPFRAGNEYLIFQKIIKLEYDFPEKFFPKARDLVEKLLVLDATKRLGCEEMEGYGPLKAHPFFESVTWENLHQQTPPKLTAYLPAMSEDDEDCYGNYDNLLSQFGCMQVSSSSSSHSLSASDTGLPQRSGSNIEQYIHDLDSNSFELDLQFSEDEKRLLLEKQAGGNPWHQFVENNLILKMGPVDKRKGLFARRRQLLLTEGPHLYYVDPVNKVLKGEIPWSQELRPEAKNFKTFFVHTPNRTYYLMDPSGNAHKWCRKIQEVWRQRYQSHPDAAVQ
In words: PDK1 biochemical potency (binding of the inactive conformation). Particulars: compared to the PDK1 inhibitor GSK2334470. An excerpt: (§1) The compounds bind deep in the adaptive (allosteric) pocket, causing a distortion in the N-terminal domain thereby perturbing the PIF-pocket and thus negatively modulating PI-independent substrate binding. […] Anti-proliferative activity correlated with pathway modulation assessed by inhibition of phosphorylation of PDK1, RSK2, and AKT.

For series [1], the system named is cell lines derived from hematologic cancers. Kind of series: Anti-proliferative activity in a panel of hematologic cancer cell lines. In kind it is cell-based. Particulars: panel of more than 20 cell lines: AML, multiple myeloma, DLBCL, Mantle cell lymphoma.
From the text: as §1

In series [2] the test system is phosphorylation of PDK1, RSK2, and AKT. Kind of series: Pathway modulation in cells: inhibition of phosphorylation. In kind it is cell-based.
From the text: as §1

In series [3] the test system is cell lines derived from hematologic cancers. Kind of series: Apoptosis induction in cancer cell lines. In kind it is cell-based. Conditions: after 24 hours.
From the text: as §1

The test system is the same in series [4]. Kind of series: 72-hour viability assays. In kind it is cell-based.
From the text: as §1

The nature of series [5]: Oral pharmacokinetics in mice. Format: in vivo. Conditions: for Tmax / bioavailability: mouse, in vivo; for bioavailability: read-out: oral bioavailability % F.
Another series has as its system MV4-11 xenografts. Kind of series: In vivo pathway modulation in MV4-11 xenografts. Conditions: 4 hours and 24 hours after a single oral dose, MV4-11 xenografts in mice. The method, then:
Pathway modulation was assessed in vivo using MV4-11 xenografts in mice. […] Efficacy was assessed by 21-day dosing in MV4-11 xenografts.

The nature of a further series: Aqueous solubility. In kind it is physicochemical. An excerpt:
The present invention provides a process for the preparation of a pharmaceutical composition comprising active compounds as described herein, with improved absorption. […] According to the process of the present invention, it is possible to provide, from an active compound, a formulation in which the dissolution rate and oral bioavailability of the drug are high. Furthermore, the solid dispersion extrudates of the present invention have good stability at room temperature.
To overcome the inherent hurdles posed by this class of drugs, three alternative formulation approaches were screened: lipid-based formulation, nano-suspension, and solid dispersion via hot melt extrusion (HME).

≈ marks a conversion by molar mass, not a printed value. Some results are limits rather than exact numbers.

As to `CNc1n[nH]c2ncc(-c3ccc(CNc4ncc(C#N)nc4C(=O)N[C@@H](C)c4ccc(F)c(F)c4)cc3)cc12` [Compound 2, 6-Cyano-3-[4-(3-methylamino-1H-pyrazolo[3,4-b]pyridin-5-yl)-benzylamino]-pyrazine-2-carboxylic acid [1-(3,4-difluoro-phenyl)-ethyl]-amide], the “biochemical potency compared to GSK2334470” value at PDK1 is “comparable biochemical potency”. The molecule further showed a half-maximal effective concentration (EC50) in series [1] of 3 to 900 nM. Moreover, the “inhibition of PDK1 phosphorylation, fold more after 24 hours than 4 hours” value in series [2] (24 hours vs 4 hours) was 2-5 fold. Moreover, in series [2] (all cell lines tested), the “fold more potent than GSK2334470 at inhibiting PDK1 and RSK2 phosphorylation” value is recorded as 10- to 30 fold. For the same molecule, in series [3], the apoptosis result was “substantial apoptosis”. In addition, in series [4], the “fold more potent than GSK2334470 in viability assays” value is listed as “at least 10 fold”. Besides, in series [5], the half-life entry is given as “long half-life”, the Tmax was in the range of 4 to 8 h and the bioavailability was over 40%. In addition, the “pathway modulation in vivo” value in the series on MV4-11 xenografts is reported as “Potent pathway modulation”.

As for `C[C@H](NC(=O)c1nc(C#N)cnc1NCc1ccc(-c2cnc3[nH]nc(N)c3n2)cc1)c1ccc(F)c(F)c1` (stereo in doubt) [Compound 1, 3-[4-(3-Amino-1H-pyrazolo[3,4-b]pyrazin-5-yl)-benzylamino]-6-cyano-pyrazine-2-carboxylic acid [1-(3,4-difluoro-phenyl)-ethyl]-amide], in series [5], the half-life result is given as “long half-life”, the Tmax was in the range of 4 to 8 h and the bioavailability is over 40%. For the same molecule, in the series on MV4-11 xenografts, the “pathway modulation in vivo” value was “Potent pathway modulation”. This molecule also gave a solubility in “Aqueous solubility” (aqueous buffer, over the physiological pH range) of under 0.1 µg/mL. The molecule further returned a solubility in “Aqueous solubility” (aqueous medium (not specified further)) of 0.1 µg/mL (≈ 0.19 µM).

One may read the EC50 as the concentration that produces a half-maximal response. Lower therefore signals greater potency. The term Tmax denotes the time from dosing to the highest level. A word on the bioavailability: it is dose-corrected exposure relative to a reference, in per cent. Broadly, the solubility is the dissolved amount per volume that the medium holds. Lower therefore signals little dissolved substance.
